Laboratory results: PubChem BioAssay AID256 (DTP/NCI, 2004)
“And” between values parts separate entries of the source, which are not always exact repeats. Equal entries are not always repeated. Toxic doses and inconclusive results are not listed. The calls were made as follows: active = survival T/C of 150% or more; inactive = T/C below 125% in these data.

Tested on: CD2F1 mice, L1210 leukemia ip, survival T/C
Assay: NCI In Vivo Anticancer Drug Screen. Data for tumor model L1210 Leukemia (intraperitoneal) in CD2F1 (CDF1) mice
Details: higher = longer survival
Procedure, shortened: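 Activity against a transplanted murine tumor was judged by comparing the compound group with a vehicle group. The outcome in the treated animals was divided by that in the controls.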

[1] = endpoint: mean survival time, dose: 10.0 mg/kg/injection, schedule: Q01DX009 (ip), vehicle: saline
[2] = endpoint: mean survival time, dose: 20.0 mg/kg/injection, schedule: Q01DX009 (ip), vehicle: saline
[3] = endpoint: mean survival time, dose: 20.0 mg/kg/injection, schedule: Q04DX003 (ip), vehicle: saline
[4] = endpoint: mean survival time, dose: 50.0 mg/kg/injection, schedule: Q01DX009 (ip), vehicle: saline with Tween-80
[5] = endpoint: mean survival time, dose: 100.0 mg/kg/injection, schedule: Q01DX009 (ip), vehicle: saline with Tween-80
[6] = endpoint: mean survival time, dose: 200.0 mg/kg/injection, schedule: Q01DX009 (ip), vehicle: saline with Tween-80
[7] = endpoint: mean survival time, dose: 100.0 mg/kg/injection, schedule: Q04DX003 (ip), vehicle: saline with Tween-80
[8] = endpoint: mean survival time, dose: 200.0 mg/kg/injection, schedule: Q04DX003 (ip), vehicle: saline with Tween-80
[9] = endpoint: mean survival time, dose: 400.0 mg/kg/injection, schedule: Q04DX003 (ip), vehicle: saline with Tween-80

Measured: T/C

Cc1ccccc1S(=O)(=O)N/N=C/c1ccsc1
inactive: endpoint: median survival time, dose: 50.0 mg/kg/injection, schedule: Q04DX002 (ip), vehicle: saline with Tween-80 90 % of control | endpoint: median survival time, dose: 100.0 mg/kg/injection, schedule: Q04DX002 (ip), vehicle: saline with Tween-80 90 % of control | endpoint: median survival time, dose: 200.0 mg/kg/injection, schedule: Q04DX002 (ip), vehicle: saline with Tween-80 100 % of control | endpoint: median survival time, dose: 400.0 mg/kg/injection, schedule: Q04DX002 (ip), vehicle: saline with Tween-80 90 % of control

O=C(O)CCC(=O)O
inactive: [1] 104 % of control | endpoint: mean survival time, dose: 10.0 mg/kg/injection, schedule: Q01DX009 (ip), vehicle: water 95 % of control and 98 % of control | endpoint: mean survival time, dose: 20.0 mg/kg/injection, schedule: Q01DX001 (ip), vehicle: saline 104 % of control | endpoint: mean survival time, dose: 20.0 mg/kg/injection, schedule: Q01DX001 (ip), vehicle: water 95 % of control and 98 % of control | [2] 97 % of control | endpoint: mean survival time, dose: 20.0 mg/kg/injection, schedule: Q01DX009 (ip), vehicle: water 101 % of control and 98 % of control | [3] 96 % of control | endpoint: mean survival time, dose: 20.0 mg/kg/injection, schedule: Q04DX003 (ip), vehicle: water 98 % of control | endpoint: mean survival time, dose: 40.0 mg/kg/injection, schedule: Q01DX001 (ip), vehicle: saline 104 % of control | endpoint: mean survival time, dose: 40.0 mg/kg/injection, schedule: Q01DX001 (ip), vehicle: water 103 % of control and 101 % of control | endpoint: mean survival time, dose: 40.0 mg/kg/injection, schedule: Q01DX009 (ip), vehicle: saline 104 % of control | endpoint: mean survival time, dose: 40.0 mg/kg/injection, schedule: Q01DX009 (ip), vehicle: water 97 % of control and 95 % of control | endpoint: mean survival time, dose: 40.0 mg/kg/injection, schedule: Q04DX003 (ip), vehicle: saline 102 % of control | endpoint: mean survival time, dose: 40.0 mg/kg/injection, schedule: Q04DX003 (ip), vehicle: water 96 % of control | endpoint: mean survival time, dose: 80.0 mg/kg/injection, schedule: Q01DX001 (ip), vehicle: saline 103 % of control | endpoint: mean survival time, dose: 80.0 mg/kg/injection, schedule: Q01DX001 (ip), vehicle: water 97 % of control | endpoint: mean survival time, dose: 80.0 mg/kg/injection, schedule: Q01DX009 (ip), vehicle: saline 104 % of control | endpoint: mean survival time, dose: 80.0 mg/kg/injection, schedule: Q01DX009 (ip), vehicle: water 95 % of control and 97 % of control | endpoint: mean survival time, dose: 80.0 mg/kg/injection, schedule: Q04DX003 (ip), vehicle: saline 98 % of control | endpoint: mean survival time, dose: 80.0 mg/kg/injection, schedule: Q04DX003 (ip), vehicle: water 91 % of control and 96 % of control | endpoint: mean survival time, dose: 160.0 mg/kg/injection, schedule: Q01DX001 (ip), vehicle: saline 101 % of control | endpoint: mean survival time, dose: 160.0 mg/kg/injection, schedule: Q01DX001 (ip), vehicle: water 98 % of control and 93 % of control | endpoint: mean survival time, dose: 160.0 mg/kg/injection, schedule: Q01DX009 (ip), vehicle: saline 98 % of control | endpoint: mean survival time, dose: 160.0 mg/kg/injection, schedule: Q01DX009 (ip), vehicle: water 98 % of control and 90 % of control | endpoint: mean survival time, dose: 160.0 mg/kg/injection, schedule: Q04DX003 (ip), vehicle: saline 101 % of control | endpoint: mean survival time, dose: 160.0 mg/kg/injection, schedule: Q04DX003 (ip), vehicle: water 98 % of control and 93 % of control | endpoint: mean survival time, dose: 320.0 mg/kg/injection, schedule: Q01DX001 (ip), vehicle: saline 106 % of control | endpoint: mean survival time, dose: 320.0 mg/kg/injection, schedule: Q01DX001 (ip), vehicle: water 101 % of control | endpoint: mean survival time, dose: 320.0 mg/kg/injection, schedule: Q04DX003 (ip), vehicle: saline 98 % of control | endpoint: mean survival time, dose: 320.0 mg/kg/injection, schedule: Q04DX003 (ip), vehicle: water 87 % of control and 98 % of control | endpoint: mean survival time, dose: 640.0 mg/kg/injection, schedule: Q01DX001 (ip), vehicle: saline 103 % of control | endpoint: mean survival time, dose: 640.0 mg/kg/injection, schedule: Q01DX001 (ip), vehicle: water 101 % of control

O=C(O)/C=N/NS(=O)(=O)c1ccccc1
inactive: endpoint: mean survival time, dose: 12.5 mg/kg/injection, schedule: Q01DX009 (ip), vehicle: water 99 % of control | endpoint: mean survival time, dose: 25.0 mg/kg/injection, schedule: Q01DX009 (ip), vehicle: water 103 % of control | endpoint: mean survival time, dose: 50.0 mg/kg/injection, schedule: Q01DX009 (ip), vehicle: water 113 % of control | endpoint: mean survival time, dose: 100.0 mg/kg/injection, schedule: Q01DX009 (ip), vehicle: water 114 % of control

CN1C2CCC1CC(O)C2 (stereo unspecified)
inactive: endpoint: mean survival time, dose: 100.0 mg/kg/injection, schedule: Q04DX002 (ip), vehicle: saline 109 % of control | endpoint: mean survival time, dose: 200.0 mg/kg/injection, schedule: Q04DX002 (ip), vehicle: saline 109 % of control | endpoint: mean survival time, dose: 400.0 mg/kg/injection, schedule: Q04DX002 (ip), vehicle: saline 97 % of control

O=C(CNC(=O)Nc1cccc([N+](=O)[O-])c1)N/N=C/c1cccc(O)c1
inactive: [4] 92 % of control | [5] 95 % of control | [6] 95 % of control

CC(C)(C)C(=O)CC(O)(C(F)(F)F)C(F)(F)F
inactive: endpoint: mean survival time, dose: 100.0 mg/kg/injection, schedule: Q04DX003 (ip), vehicle: saline 100 % of control | endpoint: mean survival time, dose: 200.0 mg/kg/injection, schedule: Q04DX003 (ip), vehicle: saline 97 % of control | endpoint: mean survival time, dose: 400.0 mg/kg/injection, schedule: Q04DX003 (ip), vehicle: saline 100 % of control

NC(N)=N/N=C/c1c(O)ccc2ccccc12
inactive: endpoint: mean survival time, dose: 31.25 mg/kg/injection, schedule: Q01DX010 (oral), vehicle: saline 102 % of control | endpoint: mean survival time, dose: 62.5 mg/kg/injection, schedule: Q01DX010 (oral), vehicle: saline 108 % of control | endpoint: mean survival time, dose: 125.0 mg/kg/injection, schedule: Q01DX010 (oral), vehicle: saline 101 % of control

COc1cc(Cl)ccc1NC(=O)Oc1c(Cl)cccc1Cl
inactive: [4] 104 % of control | [5] 100 % of control | [6] 100 % of control

Cc1cc(C)cc(OC(=O)/C=C/C(=O)Oc2cc(C)cc(C)c2)c1
inactive: [7] 100 % of control | [8] 95 % of control | [9] 96 % of control

CCCCN(C)N=Nc1cccnc1
inactive: endpoint: mean survival time, dose: 13.0 mg/kg/injection, schedule: Q01DX009 (ip), vehicle: saline 90 % of control | endpoint: mean survival time, dose: 19.0 mg/kg/injection, schedule: Q01DX009 (ip), vehicle: saline 109 % of control | endpoint: mean survival time, dose: 28.0 mg/kg/injection, schedule: Q01DX009 (ip), vehicle: saline 109 % of control | endpoint: mean survival time, dose: 42.0 mg/kg/injection, schedule: Q01DX009 (ip), vehicle: saline 92 % of control

CCO/C=C1\SC(=S)N(c2ccccc2OC)C1=O
inactive: [7] 107 % of control | [8] 102 % of control | [9] 107 % of control

NC(N)=N/N=C(\c1ccc(C(F)(F)F)cc1)c1ccc(Cl)c(Cl)c1
inactive: endpoint: mean survival time, dose: 75.0 mg/kg/injection, schedule: Q01DX001 (ip), vehicle: saline 91 % of control

C[N+](C)(C)Cc1ccccc1/C(=N\O)c1ccccc1
inactive: endpoint: mean survival time, dose: 5.0 mg/kg/injection, schedule: Q01DX009 (ip), vehicle: saline 109 % of control | endpoint: mean survival time, dose: 5.0 mg/kg/injection, schedule: Q04DX003 (ip), vehicle: saline 116 % of control | [1] 100 % of control | endpoint: mean survival time, dose: 10.0 mg/kg/injection, schedule: Q04DX003 (ip), vehicle: saline 98 % of control | [2] 91 % of control | [3] 89 % of control

CCC(O)C[As](=O)(O)c1ccccc1OC (stereo unspecified)
inactive: endpoint: mean survival time, dose: 6.25 mg/kg/injection, schedule: Q04DX003 (ip), vehicle: saline with Tween-80 97 % of control | endpoint: mean survival time, dose: 12.5 mg/kg/injection, schedule: Q04DX003 (ip), vehicle: saline with Tween-80 97 % of control | endpoint: mean survival time, dose: 25.0 mg/kg/injection, schedule: Q04DX003 (ip), vehicle: saline with Tween-80 103 % of control

CC1=C2CCCCC2(C)CCC1=O (stereo unspecified)
inactive: endpoint: mean survival time, dose: 100.0 mg/kg/injection, schedule: Q04DX002 (ip), vehicle: saline with Tween-80 120 % of control | endpoint: mean survival time, dose: 200.0 mg/kg/injection, schedule: Q04DX002 (ip), vehicle: saline with Tween-80 108 % of control | endpoint: mean survival time, dose: 400.0 mg/kg/injection, schedule: Q04DX002 (ip), vehicle: saline with Tween-80 100 % of control

O=C(CCCCCC(=O)OCCBr)OCCBr
inactive: endpoint: mean survival time, dose: 50.0 mg/kg/injection, schedule: Q04DX003 (ip), vehicle: saline sonified 102 % of control | endpoint: mean survival time, dose: 100.0 mg/kg/injection, schedule: Q04DX003 (ip), vehicle: saline sonified 100 % of control | endpoint: mean survival time, dose: 200.0 mg/kg/injection, schedule: Q04DX003 (ip), vehicle: saline sonified 93 % of control
